Structures are written as SMILES. Read-outs that look alike come from different tables or passages of the source.

Assay [1] has as its system bacteriophage MS2 (ATCC 15597-B1). Description: Inactivation of bacteriophage MS2 (double-layer agar, contact time 5 min). The note with it: for log reduction at 300 µg/mL: Escherichia phage MS2, ATCC15597, 5 min, dose 300 mg L-1, pH 7.2, contact time 5 min; for Dose for achieving 3-log inactivation of MS2 / MS2 inactivation rate constant k: pH 7.2, contact time 5 min. The class given is cell-based. As to the method:
The bacteriophage MS2 (ATCC 15597-B1) was propagated in the host E. coli (ATCC 15597) in Tryptone Soya broth at 37 °C for 16 h. The viruses were separated from the bacterial debris and purified by centrifuging the phage culture (4000×g, 10 min, 4 °C) and filtering the lysate with a 0.2 μm polyethersulfone sterile filter. The filtrate was then diluted in PBS (10 mM, pH 7.2) to an initial MS2 concentration of 10^9‒10^10 plaque-forming units […]. To initiate the disinfection experiments, a series of DBP doses were added to the MS2 suspension at room temperature (22 ± 1 °C). […] Briefly, serial 10-fold dilutions were conducted for the disinfected samples and the control sample without disinfection. Each dilution was mixed with the host E. coli in the soft agar and the mixture was immediately spread onto a Petri dish with Tryptone Soya agar. After the Petri dishes were incubated at 37 °C for 16 h, the plaque-forming units were counted. The disinfection experiments were performed in duplicate. All the materials for the disinfection experiments were autoclaved before use.

Assay [2] relates to E. coli (ATCC 25922). Description: Inactivation of E. coli by disinfectants (membrane filter enumeration, contact time 5 min). The class given is cell-based, Escherichia coli. The note with it: for log reduction at 500 µg/mL / EC (3-log inactivation) / log reduction at 1500 µg/mL / log reduction at 200 µg/mL / log reduction at 475 µg/mL / log reduction at 115 µg/mL: Escherichia coli, ATCC25922, 5 min; for log reduction at 500 µg/mL: dose 500 mg L-1; for log reduction at 500 µg/mL / log reduction at 1500 µg/mL / log reduction at 200 µg/mL / log reduction at 475 µg/mL / log reduction at 115 µg/mL: 5 min; for log reduction at 500 µg/mL / log reduction at 1500 µg/mL / log reduction at 200 µg/mL / log reduction at 115 µg/mL: read-out: Log (N/N0); for log reduction at 1500 µg/mL: dose 1500 mg L-1; for log reduction at 200 µg/mL: dose 200 mg L-1; for log reduction at 475 µg/mL: dose 475 mg L-1; for log reduction at 115 µg/mL: dose 115 mg L-1. How it is done:
(§1) The chemicals and reagents used are detailed in Supplementary Note 1. The bacteria E. coli (ATCC 25922) and S. aureus (ATCC 25923) were cultured aerobically in Luria-Bertani broth (Sigma-Aldrich) and Tryptone Soya broth (Oxoid), respectively, at 37 °C for 16 h. The fungus C. albicans (ATCC 14053) was aerobically cultured in Sabouraud Dextrose broth (Difco) at 37 °C for 24 h. The microorganism cells were harvested by centrifugation at 1200×g (10 min, 4 °C) and resuspended in phosphate-buffered saline (PBS, 10 mM, pH 7.2). The disinfection experiments were performed in PBS solutions (10 mM, pH 7.2) with an initial concentration of E. coli, S. aureus, or C. albicans of 10^6‒10^7 cells per milliliter. A contact time of 5 min was used in accordance with the recommended time range of 0.25–10 min by USEPA for surface disinfection. Preliminary tests were conducted to determine the appropriate range of DBP doses. The appropriate dose range was established when the lowest and highest doses could achieve <1-log and >3-log of microbial inactivation, respectively. Based on the preliminary results, a series of doses of DBPs were added to the cell suspensions at room temperature (22 ± 1 °C). After the contact time of 5 min, the microorganism cells were enumerated following a membrane filter method. Briefly, serial 10-fold dilutions were conducted for the disinfected samples and the control sample without disinfection. Each diluted suspension was subjected to filtration through 0.45-μm membrane, which was then placed on a petri dish. The Petri dishes containing E. coli, S. aureus, and C. albicans were incubated in m-FC medium (Becton Dickinson & Co) at 45 °C for 24 h, in Tryptone Soya broth at 37 °C for 24 h and in Sabouraud Dextrose broth at 37 °C for 24 h, respectively. After incubation, the colony-forming units within a statistically reasonable range (20–80) were counted.
The impact of pH on the disinfection efficiencies of DBPs was examined. E. coli (ATCC 25922) was used as the test strain. The disinfection experiments were performed in 10 mM PBS solutions (pH 6.2, 7.2, and 8.2) with an initial E. coli concentration of 10^6‒10^7 cells per milliliter. To initiate the disinfection, a DBP was dosed with a bacteria suspension at a predetermined concentration. After the given contact time (5 min) at room temperature (22 ± 1 °C), the bacteria were enumerated following the membrane filter method. The bacteria concentrations in the 10 mM PBS solutions (pH 6.2, 7.2, and 8.2) without the addition of DBPs were used as controls.

In assay [3] the test system is C. albicans (ATCC 14053). Description: Inactivation of C. albicans (contact time 5 min). The class given is cell-based, Candida albicans. The settings on record: for log reduction at 300 µg/mL: Candida albicans, ATCC14053, 5 min, dose 300 mg L-1, pH 7.2, contact time 5 min; for C. albicans inactivation rate constant k / Dose for achieving 3-log inactivation of C. albicans: pH 7.2, contact time 5 min. How it is done: as §1

Where [4] appears, read: pH 7.2, MS2, read-out: Log (N/N0).
The mark [5] stands for this setting: pH 7.2, contact time 5 min, read-out: Dose for achieving 3-log inactivation of E. coli.
[6] abbreviates: pH 7.2, C. albicans, read-out: Log (N/N0).
Setting [7] is: pH 7.2, read-out: Dose for achieving 3-log inactivation of E. coli.

For `Oc1cc(I)c(O)cc1I` [2,5-DIHQ, 2,5-diiodohydroquinone], the log reduction at 300 µg/mL in assay [1] (setting [4]) turned out to be 1.11; in assay [3] (setting [6]) it was 0.393. Also, the log reduction at 500 µg/mL in assay [2] (pH 6.2, E. coli, pH 6.2) stood at 1.76; in assay [2] (pH 7.2, E. coli, pH 7.2), 3.66; in assay [2] (pH 8.2, E. coli, pH 8.2) it was 5.5. In addition, the EC (3-log inactivation) in assay [2] (setting [5]) was 459 µg/mL. In addition, in assay [2] (pH 7.2, contact time 5 min), the “E. coli inactivation rate constant k” value was 0.13 L mg‒1 h‒1.
On to `Oc1cc(Br)c(O)cc1Br` [2,5-DBHQ, 2,5-dibromohydroquinone], for which the log reduction at 1500 µg/mL came out at 1.35 in assay [2] (pH 6.2, E. coli, pH 6.2); 3.28 in assay [2] (pH 7.2, E. coli, pH 7.2); 3.84 in assay [2] (pH 8.2, E. coli, pH 8.2). In addition, the EC (3-log inactivation) in assay [2] (setting [5]) amounted to 1450 µg/mL. In addition, in assay [2] (pH 7.2, contact time 5 min), the “E. coli inactivation rate constant k” value was 0.03 L mg‒1 h‒1.
On to `Cc1cc(O)cc(C)c1Cl` [PCMX, para-chloro-meta-xylenol, reference compound], for which the log reduction at 300 µg/mL in assay [1] (setting [4]) was determined as 1.03; in assay [3] (setting [6]), 3.49. Besides, in assay [1], the “Dose for achieving 3-log inactivation of MS2” value stood at 1010 mg L−1. For the same molecule, the “MS2 inactivation rate constant k” value in assay [1] amounted to 600 µL/min/mg. Moreover, the log reduction at 200 µg/mL was found to be 4.19 in assay [2] (pH 6.2, E. coli, pH 6.2); 3.54 in assay [2] (pH 7.2, E. coli, pH 7.2); 5.56 in assay [2] (pH 8.2, E. coli, pH 8.2). Moreover, in assay [2] (setting [5]), the EC (3-log inactivation) was 188 µg/mL. Also, the “E. coli inactivation rate constant k” value in assay [2] (pH 7.2, contact time 5 min) turned out to be 0.66 L mg‒1 h‒1. For the same molecule, the “C. albicans inactivation rate constant k” value in assay [3] came to 3670 µL/min/mg. In assay [3], the “Dose for achieving 3-log inactivation of C. albicans” value was 320 mg L−1.
On to `Oc1ccc(Cl)cc1Cl` [2,4-DCPh, 2,4-Dichlorophenol], for which the log reduction at 300 µg/mL in assay [1] (pH 7.2, read-out: Log (N/N0), MS2) is 0.549; in assay [3] (pH 7.2, read-out: Log (N/N0), C. albicans), 0.236. The log reduction at 475 µg/mL in assay [2] (pH 6.2, read-out: Log (N/N0), E. coli, pH 6.2) turned out to be 3.02; in assay [2] (pH 7.2, read-out: Log (N/N0), E. coli, pH 7.2), 3.32; in assay [2] (pH 8.2, read-out: Log (N/N0), E. coli, pH 8.2), 3.29. The EC (3-log inactivation) in assay [2] (setting [7]) came to 472 µg/mL. In addition, in assay [2] (pH 7.2, contact time 5 min), the “E. coli inactivation rate constant k” value is 0.30 L mg‒1 h‒1.
Consider `Oc1ccc(I)cc1I` [2,4-DIPh, 2,4-diiodophenol], for which the values for the log reduction at 300 µg/mL in assay [1] (setting [4]) and in assay [3] (setting [6]) were 2.17 and 5.49, respectively. For the same molecule, the log reduction at 115 µg/mL came to 3.33 in assay [2] (pH 6.2, E. coli, pH 6.2); 2.77 in assay [2] (pH 7.2, E. coli, pH 7.2); 3.02 in assay [2] (pH 8.2, E. coli, pH 8.2). Further, the EC (3-log inactivation) in assay [2] (setting [5]) turned out to be 112 µg/mL. Besides, the “E. coli inactivation rate constant k” value in assay [2] (pH 7.2, contact time 5 min) amounted to 0.79 L mg‒1 h‒1.
Turning to `O=C1C=C(Cl)C(=O)C(Cl)=C1` [2,6-DCQ, 2,6-dichlorobenzoquinone], in assay [1], the “Dose for achieving 3-log inactivation of MS2” value was 46.1 mg L−1 and the “MS2 inactivation rate constant k” value came to 14200 µL/min/mg. In addition, the “Disinfection efficiency relative to PCMX (ratio of doses for 3-log inactivation)” value in assay [2] (E. coli, S. aureus, C. albicans and MS2, pH 7.2, 5 min) is given as 9.0–22 times. In addition, the “Log reduction (Mean ± SD)” value in assay [2] (E. coli, dose 7.5 mg L−1, pH 7.2, contact time 5 min) is on record as 0.76 ± 0.16. Further, in assay [2] (E. coli, dose 15 mg L−1, pH 7.2, contact time 5 min), the “Log reduction (Mean ± SD)” value is on record as 4.24 ± 0.22. For the same molecule, the EC (3-log inactivation) in assay [2] (setting [7]) was found to be 12.8 µg/mL. Besides, the “E. coli inactivation rate constant k” value in assay [2] (pH 7.2, contact time 5 min) is reported as 5.50 L mg‒1 h‒1. Further, in assay [3], the “C. albicans inactivation rate constant k” value stood at 31300 µL/min/mg and the “Dose for achieving 3-log inactivation of C. albicans” value amounted to 35.4 mg L−1.

Values taken from article PMC11161644, “An effective and rapidly degradable disinfectant from disinfection byproducts” (Nature Communications, 2024).
